Measured values published in PubChem BioAssay AID328 (DTP/NCI, 2004).
“And” between values parts separate entries of the source, which are not always exact repeats. Identical values can stand only once. Toxic doses and inconclusive results are not listed.

Test system: BDF1 mice, P388 leukemia ip, median survival T/C
Assay: NCI In Vivo Anticancer Drug Screen. Data for tumor model P388 Leukemia (intraperitoneal) in B6D2F1 (BDF1) mice
Conditions: endpoint: median survival time, higher = longer survival
Procedure, shortened: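 Transplantable tumour in mice; compound vs vehicle dosing; survival scored; ratio of treated to control reported.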

[1] = dose: 25.0 mg/kg/injection, schedule: Q04DX003 (ip), vehicle: saline with Tween-80
[2] = dose: 50.0 mg/kg/injection, schedule: Q04DX003 (ip), vehicle: saline with Tween-80
[3] = dose: 100.0 mg/kg/injection, schedule: Q04DX003 (ip), vehicle: saline with Tween-80
[4] = dose: 200.0 mg/kg/injection, schedule: Q04DX003 (ip), vehicle: saline with Tween-80
[5] = dose: 400.0 mg/kg/injection, schedule: Q04DX003 (ip), vehicle: saline with Tween-80
[6] = dose: 50.0 mg/kg/injection, schedule: Q01DX009 (ip), vehicle: saline with Tween-80
[7] = dose: 100.0 mg/kg/injection, schedule: Q01DX009 (ip), vehicle: saline with Tween-80
[8] = dose: 100.0 mg/kg/injection, schedule: Q04DX003 (ip), vehicle: Klucel (hydroxypropylcellulose) (HPC)
[9] = dose: 100.0 mg/kg/injection, schedule: Q01DX009 (ip), vehicle: Klucel (hydroxypropylcellulose) (HPC)
[10] = dose: 200.0 mg/kg/injection, schedule: Q01DX009 (ip), vehicle: Klucel (hydroxypropylcellulose) (HPC)
[11] = dose: 200.0 mg/kg/injection, schedule: Q04DX003 (ip), vehicle: Klucel (hydroxypropylcellulose) (HPC)
[12] = dose: 200.0 mg/kg/injection, schedule: Q01DX009 (ip), vehicle: saline with Tween-80
[13] = dose: 12.5 mg/kg/injection, schedule: Q01DX009 (ip), vehicle: saline
[14] = dose: 25.0 mg/kg/injection, schedule: Q01DX009 (ip), vehicle: saline
[15] = dose: 50.0 mg/kg/injection, schedule: Q01DX009 (ip), vehicle: saline
[16] = dose: 100.0 mg/kg/injection, schedule: Q01DX009 (ip), vehicle: saline
[17] = dose: 50.0 mg/kg/injection, schedule: Q01DX009 (ip), vehicle: Klucel (hydroxypropylcellulose) (HPC)

COc1cc(C#N)ccc1O
T/C (dose: 100.0 mg/kg/injection, schedule: Q01DX009 (ip), vehicle: gum acacia): 100 % of control | T/C (dose: 100.0 mg/kg/injection, schedule: Q04DX003 (ip), vehicle: gum acacia): 92 % of control | T/C (dose: 200.0 mg/kg/injection, schedule: Q01DX009 (ip), vehicle: gum acacia): 87 % of control | T/C (dose: 200.0 mg/kg/injection, schedule: Q04DX003 (ip), vehicle: gum acacia): 88 % of control

C#C/C=C/CC1O/C(=C(\Br)CC)C/C=C\CC1Cl (stereo not drawn)
T/C (dose: 12.5 mg/kg/injection, schedule: Q01DX009 (ip), vehicle: other): 99 % of control | T/C (dose: 25.0 mg/kg/injection, schedule: Q01DX009 (ip), vehicle: other): 114 % of control | T/C (dose: 50.0 mg/kg/injection, schedule: Q01DX009 (ip), vehicle: other): 99 % of control

CP(O)(=S)C1CCCCC1 (stereo not drawn) (tested in a mixture with another compound)
T/C (dose: 50.0 mg/kg/injection, schedule: Q01DX005 (ip), vehicle: saline): 94 % of control | T/C (dose: 100.0 mg/kg/injection, schedule: Q01DX005 (ip), vehicle: saline): 91 % of control | T/C (dose: 200.0 mg/kg/injection, schedule: Q01DX005 (ip), vehicle: saline): 90 % of control

O=c1oc2c(c(N(c3ccccc3)c3ccccc3)c1Cl)CSc1ccccc1-2
T/C [1]: 100 % of control | T/C [2]: 93 % of control | T/C [3]: 90 % of control

CCN(CC)c1c(C)nnc2c3c(-c4ccccc4)c(-c4ccccc4)nnc3nn12
T/C [2]: 91 % of control and 97 % of control (2×) | T/C [3]: 88 % of control and 91 % of control and 97 % of control | T/C [4]: 97 % of control and 108 % of control and 123 % of control | T/C [5]: 92 % of control and 113 % of control

CNC(=N)c1ccc(NC(=N)c2ccc(NC(=N)c3ccc(NC(=O)Nc4ccc(C(=N)Nc5ccc(C(=N)Nc6ccc(C(=N)NC)cc6)cc5)cc4)cc3)cc2)cc1
T/C (dose: 12.5 mg/kg/injection, schedule: Q04DX003 (ip), vehicle: saline with Tween-80): 150 % of control | T/C (dose: 19.0 mg/kg/injection, schedule: Q04DX003 (ip), vehicle: saline with Tween-80): 162 % of control and 186 % of control | T/C (dose: 25.0 mg/kg/injection, schedule: Q01DX009 (ip), vehicle: saline with Tween-80): 165 % of control and 180 % of control | T/C [1]: 163 % of control | T/C (dose: 29.0 mg/kg/injection, schedule: Q04DX003 (ip), vehicle: saline with Tween-80): 272 % of control and 172 % of control | T/C (dose: 44.0 mg/kg/injection, schedule: Q04DX003 (ip), vehicle: saline with Tween-80): 231 % of control and 195 % of control | T/C [6]: 230 % of control | T/C (dose: 66.0 mg/kg/injection, schedule: Q04DX003 (ip), vehicle: saline with Tween-80): 200 % of control | T/C (dose: 67.0 mg/kg/injection, schedule: Q04DX003 (ip), vehicle: saline with Tween-80): 229 % of control and 195 % of control | T/C [7]: 92 % of control | T/C [3]: 250 % of control and 222 % of control

O=c1[nH]cc(N(CCCl)CCCl)c(=O)[nH]1
T/C (dose: 0.38 mg/kg/injection, schedule: Q01DX010 (ip), vehicle: saline): 218 % of control | T/C (dose: 0.75 mg/kg/injection, schedule: Q01DX010 (ip), vehicle: saline): 300 % of control | T/C (dose: 1.5 mg/kg/injection, schedule: Q01DX010 (ip), vehicle: saline): 204 % of control

Cc1c(CCl)c(C)c(CCl)c(C)c1CCl
T/C [8]: 108 % of control

CN1C(=O)Nc2ccc(Cl)cc2C1(O)c1ccccc1 (stereo not drawn)
T/C [7]: 89 % of control

CN1CCc2cc3c4cc2C1Cc1ccc(O)c(c1)Oc1ccc(cc1)CC1c2c(cc(O)c(c2O4)O3)CCN1C (stereo not drawn)
T/C (dose: 7.5 mg/kg/injection, schedule: Q01DX009 (ip), vehicle: saline with Tween-80): 90 % of control

COc1ccc(C)cc1CN1NC(=O)CC1=N
T/C [9]: 100 % of control | T/C [8]: 100 % of control | T/C [10]: 109 % of control | T/C [11]: 122 % of control | T/C (dose: 400.0 mg/kg/injection, schedule: Q01DX009 (ip), vehicle: Klucel (hydroxypropylcellulose) (HPC)): 100 % of control | T/C (dose: 400.0 mg/kg/injection, schedule: Q04DX003 (ip), vehicle: Klucel (hydroxypropylcellulose) (HPC)): 94 % of control

O=C1c2ccccc2CC1(Br)C(Br)c1ccccc1 (stereo not drawn)
T/C [7]: 115 % of control | T/C [3]: 104 % of control | T/C [12]: 108 % of control | T/C [4]: 104 % of control | T/C (dose: 400.0 mg/kg/injection, schedule: Q01DX009 (ip), vehicle: saline with Tween-80): 115 % of control | T/C [5]: 103 % of control

Cn1c(N)nc2nc[nH]c2c1=S
T/C (dose: 10.0 mg/kg/injection, schedule: Q01DX010 (ip), vehicle: saline): 91 % of control | T/C (dose: 20.0 mg/kg/injection, schedule: Q01DX010 (ip), vehicle: saline): 91 % of control and 95 % of control | T/C (dose: 40.0 mg/kg/injection, schedule: Q01DX010 (ip), vehicle: saline): 91 % of control and 100 % of control | T/C (dose: 80.0 mg/kg/injection, schedule: Q01DX010 (ip), vehicle: saline): 91 % of control and 95 % of control

CNc1c(F)c(C#N)c(F)c(F)c1C#N
T/C [6]: 119 % of control

CN(C)c1ccc(/C=C2\C=Cc3ccccc32)cc1Br
T/C (dose: 25.0 mg/kg/injection, schedule: Q04DX003 (sc), vehicle: olive oil, sesame oil, peanut oil): 95 % of control | T/C (dose: 50.0 mg/kg/injection, schedule: Q04DX003 (sc), vehicle: olive oil, sesame oil, peanut oil): 100 % of control | T/C (dose: 100.0 mg/kg/injection, schedule: Q04DX003 (sc), vehicle: olive oil, sesame oil, peanut oil): 87 % of control

O=C1C=C(Nc2ccc(O)cc2)c2ccccc2C1=O
T/C (dose: 6.25 mg/kg/injection, schedule: Q01DX009 (ip), vehicle: saline): 95 % of control | T/C [13]: 104 % of control | T/C [14]: 100 % of control

O=C1c2ccccc2C(=O)c2c(O)c(N3CCOCC3)cc(O)c21
T/C (dose: 1.0 mg/kg/injection, schedule: Q01DX009 (ip), vehicle: water): 121 % of control | T/C (dose: 2.0 mg/kg/injection, schedule: Q01DX009 (ip), vehicle: water): 104 % of control | T/C (dose: 4.0 mg/kg/injection, schedule: Q01DX009 (ip), vehicle: water): 104 % of control | T/C (dose: 8.0 mg/kg/injection, schedule: Q01DX009 (ip), vehicle: water): 89 % of control | T/C (dose: 16.0 mg/kg/injection, schedule: Q01DX009 (ip), vehicle: water): 111 % of control | T/C (dose: 32.0 mg/kg/injection, schedule: Q01DX009 (ip), vehicle: water): 113 % of control | T/C [15]: 90 % of control

O=C(Cc1ccc(F)cc1)c1ccccc1
T/C [3]: 88 % of control | T/C [4]: 111 % of control | T/C [5]: 105 % of control

O=C1OC2CC=CCC2CC1O (stereo not drawn)
T/C [13]: 92 % of control | T/C [14]: 96 % of control | T/C [15]: 102 % of control | T/C [16]: 102 % of control

CS/C(=C\c1ccc2cc(C)ccc2[n+]1C)N1CCOCC1
T/C (dose: 1.56 mg/kg/injection, schedule: Q01DX009 (ip), vehicle: saline): 112 % of control | T/C (dose: 3.12 mg/kg/injection, schedule: Q01DX009 (ip), vehicle: saline): 119 % of control

CCN(CC)CCNc1ccc(N=Nc2ccc(SC)cc2)c2ccccc12
T/C (dose: 25.0 mg/kg/injection, schedule: Q01DX009 (ip), vehicle: Klucel (hydroxypropylcellulose) (HPC)): 105 % of control | T/C [17]: 100 % of control | T/C (dose: 50.0 mg/kg/injection, schedule: Q04DX003 (ip), vehicle: Klucel (hydroxypropylcellulose) (HPC)): 100 % of control | T/C [9]: 105 % of control | T/C [8]: 104 % of control | T/C [11]: 90 % of control

n1nc(Nc2nn[nH]n2)n[nH]1
T/C [17]: 90 % of control | T/C [9]: 107 % of control | T/C [10]: 110 % of control

CC(C)(C)OC(=O)NC(CCSCC(=O)O)C(N)=O (stereo not drawn)
T/C [15]: 91 % of control | T/C [16]: 88 % of control | T/C (dose: 200.0 mg/kg/injection, schedule: Q01DX009 (ip), vehicle: saline): 95 % of control

CN(C)c1ccc(/C=C\c2cc(/C=C/c3ccc(N(C)C)cc3)nc3ccccc23)cc1
T/C [6]: 103 % of control | T/C [7]: 116 % of control | T/C [12]: 120 % of control
